Consider 22 compounds from patent US20140073634A1 (Institute For Applied Cancer Science/The University of …, priority 2012, published 2014).

Molecules are shown by their SMILES. A value given as a limit tells only on which side of the number the result lay.

The test concerns 293T-HRE-GFP-luc cells. In words: Cell-based reporter assay for IC50 determinations (HRE-luciferase, hypoxia). The following applies: 6 h, 6 hrs hypoxia (1% O2), luminescence. In outline:
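IC50s come from four-parameter logistic fits of luminescence. Compounds in 1:3 DMSO series were added to 293T-HRE-GFP-luc cells, 30 min normoxia preceding 6 hrs at 1% O2, 37° C; HRE-luciferase signal was then measured with Steadylite Plus reagent.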
`COCCOc1cccc(Cn2cc(-c3noc(-c4cnc(NCC(C)(C)C)nc4)n3)ccc2=O)c1` [Example 247, 5-(5-{2-[(2,2-dimethylpropyl)amino]pyrimidin-5-yl}-1,2,4-oxadiazol-3-yl)-1-{[3-(2-methoxyethoxy)phenyl]methyl}-1,2-dihydropyridin-2-one]: the IC50 is < 100 nM.

Turning to `COCCOc1cccc(Cn2cc(-c3noc(-c4cnc(NC(C)C)nc4)n3)ccc2=O)c1` [Example 248, 1-{[3-(2-methoxyethoxy)phenyl]methyl}-5-(5-{2-[(propan-2-yl)amino]pyrimidin-5-yl}-1,2,4-oxadiazol-3-yl)-1,2-dihydropyridin-2-one], the 50% inhibitory concentration (IC50) is < 100 nM.

In the case of `COCCOc1cccc(Cn2cc(-c3noc(-c4cnc(NC(C)(C)C)nc4)n3)ccc2=O)c1` [Example 249, 5-{5-[2-(tert-butylamino)pyrimidin-5-yl]-1,2,4-oxadiazol-3-yl}-1-{[3-(2-methoxyethoxy)phenyl]methyl}-1,2-dihydropyridin-2-one], the IC50 is < 100 nM.

`COCCOc1cccc(Cn2cc(-c3noc(-c4cnc(N5CCS(=O)(=O)CC5)nc4)n3)ccc2=O)c1` [Example 250, 5-(5-(2-(1,1-dioxidothiomorpholino)pyrimidin-5-yl)-1,2,4-oxadiazol-3-yl)-1-(3-(2-methoxyethoxy)benzyl)pyridin-2(1H)-one] gave an IC50 of 100 to 1000 nM.

`O=c1ccc(-c2cc(-c3ccc(OC(F)(F)F)cc3)no2)cn1Cc1cccc(N2CCS(=O)(=O)CC2)c1` [Example 251, 1-(3-(1,1-dioxidothiomorpholino)benzyl)-5-(3-(4-(trifluoromethoxy)phenyl)isoxazol-5-yl)pyridin-2(1H)-one]: the IC50 is < 100 nM.

Turning to `O=c1ccc(-c2cc(-c3ccc(OC(F)(F)F)cc3)no2)cn1Cc1cccc(N2CCCS2(=O)=O)c1` [Example 252, 1-(3-(1,1-dioxidoisothiazolidin-2-yl)benzyl)-5-(3-(4-(trifluoromethoxy)phenyl)isoxazol-5-yl)pyridin-2(1H)-one], the IC50 is < 100 nM.

As for `O=c1ccc(-c2cc(-c3ccc(OC(F)(F)F)cc3)no2)cn1Cc1cccc(NC2CCS(=O)(=O)CC2)c1` [Example 253, 1-(3-((1,1-dioxidotetrahydro-2H-thiopyran-4-yl)amino)benzyl)-5-(3-(4-(trifluoromethoxy)phenyl)isoxazol-5-yl)pyridin-2(1H)-one], the IC50 was < 100 nM.

As for `O=c1ccc(-c2cc(-c3ccc(OC(F)(F)F)cc3)no2)cn1Cc1cccc(NC2CCCS(=O)(=O)C2)c1` (stereo not shown) [Example 254, 1-(3-((1,1-dioxidotetrahydro-2H-thiopyran-3-yl)amino)benzyl)-5-(3-(4-(trifluoromethoxy)phenyl)isoxazol-5-yl)pyridin-2(1H)-one], the IC50 was < 100 nM.

For `CC(C)c1ccc(-c2cc(-c3ccc(=O)n(Cc4cccc(N5CCC(S(C)(=O)=O)CC5)c4)c3)no2)cc1` [Example 255, 5-(5-(4-isopropylphenyl)isoxazol-3-yl)-1-(3-(4-(methylsulfonyl)piperidin-1-yl)benzyl)pyridin-2(1H)-one], the IC50 is < 100 nM.

For `COCCOc1cccc(Cn2cc(-c3nnc(-c4ccc(OC(F)F)cc4)o3)ccc2=O)c1` [Example 257, 5-{5-[4-(difluoromethoxy)phenyl]-1,3,4-oxadiazol-2-yl}-1-{[3-(2-methoxyethoxy)phenyl]methyl}-1,2-dihydropyridin-2-one], the IC50 is 100 to 1000 nM.

The compound `COCCOc1cccc(Cn2cc(-c3nnc(-c4ccc(S(=O)(=O)C(F)(F)F)cc4)o3)ccc2=O)c1` [Example 258, 1-{[3-(2-methoxyethoxy)phenyl]methyl}-5-[5-(4-trifluoromethanesulfonylphenyl)-1,3,4-oxadiazol-2-yl]-1,2-dihydropyridin-2-one] returned an IC50 of 100 to 1000 nM.

As for `CS(=O)(=O)CCCOc1cccc(Cn2cc(-c3nnc(-c4ccc(S(=O)(=O)C(F)(F)F)cc4)o3)ccc2=O)c1` [Example 259, 1-{[3-(3-methanesulfonylpropoxy)phenyl]methyl}-5-[5-(4-trifluoromethanesulfonylphenyl)-1,3,4-oxadiazol-2-yl]-1,2-dihydropyridin-2-one], the IC50 was < 100 nM.

For `CC(C)(O)c1cccc(Cn2cc(-c3nnc(-c4ccc(S(=O)(=O)C(F)(F)F)cc4)o3)ccc2=O)c1` [Example 260, 1-{[3-(2-hydroxypropan-2-yl)phenyl]methyl}-5-[5-(4-trifluoromethanesulfonylphenyl)-1,3,4-oxadiazol-2-yl]-1,2-dihydropyridin-2-one], the IC50 is 100 to 1000 nM.

`CC(C)(O)c1cccc(Cn2cc(-c3nnc(-c4ccc(OC(F)F)cc4)o3)ccc2=O)c1` [Example 261, 5-{5-[4-(difluoromethoxy)phenyl]-1,3,4-oxadiazol-2-yl}-1-{[3-(2-hydroxypropan-2-yl)phenyl]methyl}-1,2-dihydropyridin-2-one] came in with an IC50 of 100 to 1000 nM.

`CS(=O)(=O)CCCOc1cccc(Cn2cc(-c3nnc(-c4ccc(OC(F)F)cc4)o3)ccc2=O)c1` [Example 262, 5-{5-[4-(difluoromethoxy)phenyl]-1,3,4-oxadiazol-2-yl}-1-{[3-(3-methanesulfonylpropoxy)phenyl]methyl}-1,2-dihydropyridin-2-one]: the IC50 was < 100 nM.

The compound `CC(C)Oc1ccc(-c2nnc(-c3ccc(=O)n(Cc4cccc(C(C)(C)O)c4)c3)o2)cc1` [Example 263, 1-{[3-(2-hydroxypropan-2-yl)phenyl]methyl}-5-{5-[4-(propan-2-yloxy)phenyl]-1,3,4-oxadiazol-2-yl}-1,2-dihydropyridin-2-one] showed a half-inhibitory concentration (IC50) of 100 to 1000 nM.

Turning to `CC(C)Oc1ccc(-c2nnc(-c3ccc(=O)n(Cc4cccc(N5CCC(S(C)(=O)=O)CC5)c4)c3)o2)cc1` [Example 264, 1-{[3-[4-methanesulfonylpiperidin-1-yl)phenyl]methyl}-5-{5-[4-(propan-2-yloxy)phenyl]-1,3,4-oxadiazol-2-yl}-1,2-dihydropyridin-2-one], the half-maximal inhibitory concentration (IC50) fell in the range of 100 to 1000 nM.

The compound `COc1cccc(Cn2c(C)ccc(-c3nc(-c4ccc(OC(F)(F)F)cc4)no3)c2=O)c1` [Example 265, 1-[(3-methoxyphenyl)methyl]-6-methyl-3-{3-[4-(trifluoromethoxy)phenyl]-1,2,4-oxadiazol-5-yl}-1,2-dihydropyridin-2-one] gave an IC50 of 100 to 1000 nM.

For `Cc1ccc(-c2nc(-c3ccc(OC(F)(F)F)cc3)no2)c(=O)n1Cc1cccc(OC(F)F)c1` [Example 266, 1-{[3-(difluoromethoxy)phenyl]methyl}-6-methyl-3-{3-[4-(trifluoromethoxy)phenyl]-1,2,4-oxadiazol-5-yl}-1,2-dihydropyridin-2-one], the IC50 fell in the range of 100 to 1000 nM.

Compound `Cc1ccc(-c2nc(-c3ccc(OC(F)(F)F)cc3)no2)c(=O)n1Cc1cccc(S(C)(=O)=O)c1` [Example 267, 1-[(3-methanesulfonylphenyl)methyl]-6-methyl-3-{3-[4-(trifluoromethoxy)phenyl]-1,2,4-oxadiazol-5-yl}-1,2-dihydropyridin-2-one] registered an IC50 of 100 to 1000 nM.

In turn, `Cc1ccc(-c2nc(-c3ccc(OC(F)(F)F)cc3)no2)c(=O)n1Cc1cccc(S(N)(=O)=O)c1` [Example 268, 3-[(6-methyl-2-oxo-3-{3-[4-(trifluoromethoxy)phenyl]-1,2,4-oxadiazol-5-yl}-1,2-dihydropyridin-1-yl)methyl]benzene-1-sulfonamide] came in with an IC50 of 100 to 1000 nM.

For `CN1CCN(c2cccc(Cn3cccc(-c4nc(-c5ccc(OC(F)(F)F)cc5)no4)c3=O)c2)CC1` [Example 270, 1-{[3-(4-methylpiperazin-1-yl)phenyl]methyl}-3-{3-[4-(trifluoromethoxy)phenyl]-1,2,4-oxadiazol-5-yl}-1,2-dihydropyridin-2-one], the IC50 was < 100 nM.
